Measured values: patent US20260000676A1, “CHROMAN DERIVATIVES AS ESTROGEN RECEPTOR DEGRADERS” (THE REGENTS OF THE UNIVERSITY OF MICHIGAN, priority 2022, published 2026)

Key:
[1] = molecular target: T1, ER (Homo sapiens (Human), UniProt P03372); test: In-cell western (ICW) ER degradation assay in T47D cells; type: cell-based; settings: 16 hrs; for DC50: ER degradation; for Dmax / T47D Dmax %: maximal ER degradation
[2] = molecular target: T1, ER; test: In-cell western (ICW) ER degradation assay in MCF-7 cells; type: cell-based; settings: MCF7, 16 hrs; for DC50: ER degradation; for Dmax: MCF7, maximal ER degradation; for MCF7 Dmax %: maximal ER degradation
[3] = molecular target: CRBN/DDB1 (Homo sapiens (Human), UniProt Q96SW2); test: HTRF binding assay to CRBN/DDB1; settings: read-out: CRBN HTRF IC50
Chain of CRBN/DDB1 (Q96SW2 whole entry): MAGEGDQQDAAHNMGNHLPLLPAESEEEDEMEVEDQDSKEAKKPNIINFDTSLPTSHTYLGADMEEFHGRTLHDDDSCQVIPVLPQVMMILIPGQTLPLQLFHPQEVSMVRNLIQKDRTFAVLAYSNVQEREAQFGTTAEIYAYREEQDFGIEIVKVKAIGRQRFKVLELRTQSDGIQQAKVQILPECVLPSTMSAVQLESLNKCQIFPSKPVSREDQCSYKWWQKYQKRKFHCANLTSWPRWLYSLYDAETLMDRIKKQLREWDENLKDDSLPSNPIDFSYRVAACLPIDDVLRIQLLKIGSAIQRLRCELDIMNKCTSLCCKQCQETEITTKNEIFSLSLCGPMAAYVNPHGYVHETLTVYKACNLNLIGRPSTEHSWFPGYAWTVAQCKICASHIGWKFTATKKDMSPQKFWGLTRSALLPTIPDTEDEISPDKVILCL
Chain of CRBN/DDB1 (Q16531 whole entry partner): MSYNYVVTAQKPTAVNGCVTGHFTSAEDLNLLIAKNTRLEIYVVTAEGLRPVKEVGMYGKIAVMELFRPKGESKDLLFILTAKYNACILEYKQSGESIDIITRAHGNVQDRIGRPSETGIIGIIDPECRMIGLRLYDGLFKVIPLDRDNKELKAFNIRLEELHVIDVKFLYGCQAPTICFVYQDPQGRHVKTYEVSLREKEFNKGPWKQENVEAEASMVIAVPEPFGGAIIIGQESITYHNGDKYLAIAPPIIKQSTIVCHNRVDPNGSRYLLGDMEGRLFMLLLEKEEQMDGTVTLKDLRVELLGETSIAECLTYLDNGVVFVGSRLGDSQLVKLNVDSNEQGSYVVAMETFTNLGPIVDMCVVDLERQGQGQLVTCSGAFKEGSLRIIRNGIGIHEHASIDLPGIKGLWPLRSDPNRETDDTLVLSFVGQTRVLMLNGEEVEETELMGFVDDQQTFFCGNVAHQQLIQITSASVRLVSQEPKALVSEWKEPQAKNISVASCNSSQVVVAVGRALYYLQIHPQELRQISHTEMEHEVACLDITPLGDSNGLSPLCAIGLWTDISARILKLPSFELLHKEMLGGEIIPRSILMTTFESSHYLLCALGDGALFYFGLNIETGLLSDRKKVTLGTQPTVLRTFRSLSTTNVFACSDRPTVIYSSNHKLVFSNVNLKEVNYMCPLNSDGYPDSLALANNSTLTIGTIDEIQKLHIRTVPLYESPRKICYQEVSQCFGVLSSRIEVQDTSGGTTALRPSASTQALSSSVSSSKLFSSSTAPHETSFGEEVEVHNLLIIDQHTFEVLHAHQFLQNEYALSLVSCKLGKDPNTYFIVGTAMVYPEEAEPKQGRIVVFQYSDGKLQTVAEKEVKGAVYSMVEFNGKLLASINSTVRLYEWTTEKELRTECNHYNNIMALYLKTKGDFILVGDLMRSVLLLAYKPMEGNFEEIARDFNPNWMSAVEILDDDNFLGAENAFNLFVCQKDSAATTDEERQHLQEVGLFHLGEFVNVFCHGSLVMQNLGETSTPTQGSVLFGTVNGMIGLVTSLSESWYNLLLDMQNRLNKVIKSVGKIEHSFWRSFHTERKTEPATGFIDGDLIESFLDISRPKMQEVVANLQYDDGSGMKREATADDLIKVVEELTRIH
Protocol: The binding potency was determined using HTRF assay technology (Perkin Elmer). Compounds were serially diluted in DMSO and 0.2 μL volume was transferred to white 384-well plate.

T1 sequence (P03372 whole entry): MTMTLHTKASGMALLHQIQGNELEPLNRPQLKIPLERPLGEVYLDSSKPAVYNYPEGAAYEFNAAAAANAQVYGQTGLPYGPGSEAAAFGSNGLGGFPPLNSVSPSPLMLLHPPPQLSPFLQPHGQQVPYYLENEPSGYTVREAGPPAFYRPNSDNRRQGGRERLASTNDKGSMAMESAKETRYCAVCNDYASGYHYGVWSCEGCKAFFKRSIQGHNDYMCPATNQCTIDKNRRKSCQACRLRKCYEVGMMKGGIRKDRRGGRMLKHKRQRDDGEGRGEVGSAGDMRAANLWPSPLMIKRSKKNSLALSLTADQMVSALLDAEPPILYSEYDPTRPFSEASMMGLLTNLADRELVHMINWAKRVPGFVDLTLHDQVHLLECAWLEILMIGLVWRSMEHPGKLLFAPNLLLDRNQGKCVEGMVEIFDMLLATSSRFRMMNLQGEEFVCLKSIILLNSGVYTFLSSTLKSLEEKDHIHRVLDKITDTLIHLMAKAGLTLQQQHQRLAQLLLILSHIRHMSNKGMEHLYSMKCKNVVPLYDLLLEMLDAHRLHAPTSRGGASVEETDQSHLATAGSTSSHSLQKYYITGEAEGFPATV

| SMILES | DC50 [1] [µM] | Dmax [1] [%] | DC50 [2] [µM] | Dmax [2] [%] | IC50 [3] [µM] | T47D Dmax % [1] | MCF7 Dmax % [2] |
| --- | --- | --- | --- | --- | --- | --- | --- |
| CC(C(=O)N1Cc2cc3c(cc2C1)C(=O)N(C1CCC(=O)NC1=O)C3=O)N1CCC2(CCN(c3ccc([C@H]4c5ccc(O)cc5OC[C@H]4c4ccccc4)cc3)CC2)CC1 (single isomer, unassigned) [Compound A57] | > 0.1 | < 25 | > 0.1 | < 25 | > 5 |  |  |
| O=C1CCC(N2Cc3c(ccc4c3OC[C@H]3CN(CC5CC6(CCN(c7ccc([C@@H]8c9ccc(O)cc9OC[C@@H]8c8ccccc8)cn7)CC6)C5)CCN43)C2=O)C(=O)N1 (single isomer, unassigned) [Compound A65] | 0.001 to 0.01 |  | 0.001 to 0.01 |  | 0.05 to 0.5 | C (“C”: 25%-50%) | D (“D”; <25%) |
| O=C1CC[C@@H](N2Cc3c(ccc4c3OC[C@@H]3CN(C[C@@H]5COC6(CCN(c7ccc([C@H]8c9ccc(O)cc9OC[C@H]8c8ccccc8)cc7F)CC6)C5)CCN43)C2=O)C(=O)N1 [Compound A155, (R)-3-((S)-7-(((R)-8-(2-fluoro-4-((3R,4S)-7-hydroxy-3-phenylchroman-4-yl)phenyl)-1-oxa-8-azaspiro[4.5]decan-3-yl)methyl)-1-oxo-1,3,5,5a,6,7,8,9-octahydro-2H-pyrazino[1′,2′:4,5][1,4]oxazino[2,3-e]isoindol-2-yl)piperidine-2,6-dione] | 0.001 to 0.01 | 25 to 50 | > 0.1 | < 25 | < 0.05 |  |  |
| O=C1CC[C@H](N2Cc3c(ccc4c3OC[C@H]3CN(C[C@@H]5COC6(CCN(c7ccc([C@@H]8c9ccc(O)cc9OC[C@@H]8c8ccccc8)cc7F)CC6)C5)CCN43)C2=O)C(=O)N1 (single isomer, unassigned) [Compound A157] | < 0.001 | ≥ 75 | < 0.001 | 50 to 75 | < 0.05 |  |  |
| O=C1CCN(c2ccc(N3CCC4(CC3)CC(CN3CCN(c5ccc([C@H]6c7ccc(O)cc7OC[C@H]6c6ccccc6)cc5)CC3)C4)cc2)C(=O)N1 (single isomer, unassigned) [Compound A107] | < 0.001 | 25 to 50 | 0.001 to 0.01 | 25 to 50 | > 5 |  |  |
| O=C1CC[C@@H](Nc2ccc(C3CCN(C[C@H]4COC5(CCN(c6ccc([C@@H]7c8ccc(O)cc8OC[C@@H]7c7ccccc7)cc6)CC5)C4)CC3)c(F)c2)C(=O)N1 (single isomer, unassigned) [Compound A163] | < 0.001 | 50 to 75 | < 0.001 | 25 to 50 | 0.05 to 0.5 |  |  |
| O=C1CC[C@@H](N2Cc3cc4c(cc3C2=O)OC[C@@H]2CN(C[C@@H]3COC5(CCN(c6ccc([C@H]7c8ccc(O)cc8OC[C@H]7c7ccccc7)cc6)CC5)C3)CCN42)C(=O)N1 [Compound A151, (R)-3-((S)-3-(((R)-8-(4-((3R,4S)-7-hydroxy-3-phenylchroman-4-yl)phenyl)-1-oxa-8-azaspiro[4.5]decan-3-yl)methyl)-8-oxo-1,2,3,4,4a,5,8,10-octahydro-9H-pyrazino[1′,2′:4,5][1,4]oxazino[2,3-f]isoindol-9-yl)piperidine-2,6-dione] | < 0.001 | 50 to 75 | < 0.001 | 50 to 75 | 0.05 to 0.5 |  |  |
| O=C1CC[C@@H](N2Cc3c(ccc4c3OC[C@@H]3CN(C[C@H]5COC6(CCN(c7ccc([C@H]8c9ccc(O)cc9OC[C@H]8c8ccccc8)cc7)CC6)C5)CCN43)C2=O)C(=O)N1 [Compound A133, (R)-3-((S)-7-(((S)-8-(4-((3R,4S)-7-hydroxy-3-phenylchroman-4-yl)phenyl)-1-oxa-8-azaspiro[4.5]decan-3-yl)methyl)-1-oxo-1,3,5,5a,6,7,8,9-octahydro-2H-pyrazino[1′,2′:4,5][1,4]oxazino[2,3-e]isoindol-2-yl)piperidine-2,6-dione] | < 0.001 | 25 to 50 | 0.001 to 0.01 | 25 to 50 | < 0.05 |  |  |
| COc1cc(N2CCC(CN3CCC4(CC3)COc3cc5c(cc34)CN(C3CCC(=O)NC3=O)C5=O)CC2)ccc1[C@H]1c2ccc(O)cc2OC[C@H]1c1ccccc1 (stereo partly drawn) [Compound A136, 3-(1′-((1-(4-((3R,4S)-7-hydroxy-3-phenylchroman-4-yl)-3-methoxyphenyl)piperidin-4-yl)methyl)-7-oxo-5,7-dihydro-2H,6H-spiro[furo[2,3-f]isoindole-3,4′-piperidin]-6-yl)piperidine-2,6-dione] | < 0.001 | 50 to 75 | < 0.001 | 50 to 75 | < 0.05 |  |  |
| O=C1CCC(NC(=O)c2ccc(N3CCC(CN4CCN(c5ccc([C@H]6c7ccc(O)cc7OC[C@H]6c6ccccc6)cc5)CC4)CC3)cn2)C(=O)N1 (single isomer, unassigned) [Compound A128] | < 0.001 | 50 to 75 | < 0.001 |  | > 5 |  | B (“B”: >50% and <75%) |
| COc1cc(N2CCC3(CC2)CC(CN2CCC4(CC2)COc2c4ccc4c2CN(C2CCC(=O)NC2=O)C4=O)C3)c(F)cc1[C@H]1c2ccc(O)cc2OC[C@H]1c1ccccc1 (stereo partly drawn) [Compound A131, 3-(1′-((7-(2-fluoro-4-((3R,4R)-7-hydroxy-3-phenylchroman-4-yl)-5-methoxyphenyl)-7-azaspiro[3.5]nonan-2-yl)methyl)-6-oxo-6,8-dihydro-2H,7H-spiro[furo[2,3-e]isoindole-3,4′-piperidin]-7-yl)piperidine-2,6-dione] | 0.001 to 0.01 |  | 0.001 to 0.01 |  | < 0.05 | B (“B”: >50% and <75%) | B (“B”: >50% and <75%) |
| O=C1CCC(Nc2ccc(C34CCN(CC5COC6(CCN(c7ccc([C@@H]8c9ccc(O)cc9OC[C@@H]8c8ccccc8)cc7F)CC6)C5)CC3C4(F)F)cc2)C(=O)N1 (stereo partly drawn) [Compound A159, 3-((4-(7,7-difluoro-3-(((R)-8-(2-fluoro-4-((3S,4R)-7-hydroxy-3-phenylchroman-4-yl)phenyl)-1-oxa-8-azaspiro[4.5]decan-3-yl)methyl)-3-azabicyclo[4.1.0]heptan-6-yl)phenyl)amino)piperidine-2,6-dione] | 0.001 to 0.01 | 50 to 75 | 0.001 to 0.01 | 25 to 50 | 0.5 to 5 |  |  |
| O=C1CCC(NC(=O)c2ccc(N3CCN(CC4CCN(c5ccc([C@@H]6c7ccc(O)cc7OC[C@@H]6c6ccccc6)cc5)CC4)CC3)cn2)C(=O)N1 (single isomer, unassigned) [Compound A88] | 0.001 to 0.01 | 50 to 75 | 0.001 to 0.01 | 50 to 75 | > 5 |  |  |
| O=C1CCC(NC(=O)c2ccc3c(n2)OC[C@H]2CN(CC4CCN(c5ccc([C@H]6c7ccc(O)cc7OC[C@H]6c6ccccc6)cc5F)CC4)CCN32)C(=O)N1 (stereo partly drawn) [Compound A103, (4aR)-N-(2,6-dioxopiperidin-3-yl)-3-((1-(2-fluoro-4-((3R,4S)-7-hydroxy-3-phenylchroman-4-yl)phenyl)piperidin-4-yl)methyl)-1,2,3,4,4a,5-hexahydropyrazino[1,2-d]pyrido[2,3-b][1,4]oxazine-8-carboxamide] | 0.001 to 0.01 | 50 to 75 | 0.001 to 0.01 | 50 to 75 | 0.5 to 5 |  |  |
| O=C1CCC(NC(=O)c2ccc3c(n2)OC[C@H]2CN(CC4CC5(CCN(c6ccc([C@@H]7c8ccc(O)cc8OC[C@@H]7c7ccccc7)cc6)CC5)C4)CCN32)C(=O)N1 (stereo partly drawn) [Compound A93, (4aR)-N-(2,6-dioxopiperidin-3-yl)-3-((7-(4-((3S,4R)-7-hydroxy-3-phenylchroman-4-yl)phenyl)-7-azaspiro[3.5]nonan-2-yl)methyl)-1,2,3,4,4a,5-hexahydropyrazino[1,2-d]pyrido[2,3-b][1,4]oxazine-8-carboxamide] | < 0.001 | 50 to 75 | 0.001 to 0.01 | 50 to 75 | 0.5 to 5 |  |  |
| O=C1CCC(NC(=O)c2ccc(N3CCC(CN4CCN(c5ccc([C@H]6c7ccc(O)cc7OC[C@H]6c6ccccc6)cc5)CC4)CC3)cn2)C(=O)N1 (stereo partly drawn) [Compound A129, N-(2,6-dioxopiperidin-3-yl)-5-(4-((4-(4-((3R,4S)-7-hydroxy-3-phenylchroman-4-yl)phenyl)piperazin-1-yl)methyl)piperidin-1-yl)picolinamide] | 0.01 to 0.1 |  | 0.01 to 0.1 |  | > 5 | B (“B”: >50% and <75%) | C (“C”: 25%-50%) |
| O=C1CC[C@@H](N2Cc3c(ccc4c3OC[C@@H]3CN(CC5COC6(CCN(c7ccc([C@@H]8c9ccc(O)cc9OC[C@@H]8c8ccccc8)cc7F)CC6)C5)CCN43)C2=O)C(=O)N1 (single isomer, unassigned) [Compound A158] | < 0.001 |  | < 0.001 |  | < 0.05 |  |  |
| O=C1CCC(NC(=O)c2ccc(N3CCN(CC4CC5(CCN(c6ccc([C@@H]7c8ccc(O)cc8OC[C@@H]7c7ccccc7)cc6)CC5)C4)CC3)cn2)C(=O)N1 (stereo partly drawn) [Compound A85, N-(2,6-dioxopiperidin-3-yl)-5-(4-((7-(4-((3S,4R)-7-hydroxy-3-phenylchroman-4-yl)phenyl)-7-azaspiro[3.5]nonan-2-yl)methyl)piperazin-1-yl)picolinamide] | 0.001 to 0.01 | 50 to 75 | < 0.001 | 50 to 75 | > 5 |  |  |
| O=C1CC[C@H](NC(=O)c2ccc3c(n2)OC[C@H]2CN(C[C@@H]4COC5(CCN(c6ccc([C@@H]7c8ccc(O)cc8OC[C@@H]7c7ccccc7)cc6)CC5)C4)CCN32)C(=O)N1 [Compound A148, (R)-N-((S)-2,6-dioxopiperidin-3-yl)-3-(((R)-8-(4-((3S,4R)-7-hydroxy-3-phenylchroman-4-yl)phenyl)-1-oxa-8-azaspiro[4.5]decan-3-yl)methyl)-1,2,3,4,4a,5-hexahydropyrazino[1,2-d]pyrido[2,3-b][1,4]oxazine-8-carboxamide] | < 0.001 | 50 to 75 | < 0.001 | 50 to 75 | 0.5 to 5 |  |  |
